Entries after “also recorded” stand apart in the source; their conditions may differ.
Legend:
mouse MBLAC1 = molecular target: T1, mouse MBLAC1 (Mus musculus, UniProt Q8BWY4); test: Backscattering interferometry (BSI) binding of unlabeled Cef to lysates of TET-induced T-REx cells expressing mouse MBLAC1; settings: 5 μM and 50 μM
T1 construct: mouse and human Mblac1 cDNAs were subcloned into pcDNA5/FRT/TO vector; expressed in transfected cells; cell lysate
T1 sequence (Q8BWY4 1-260): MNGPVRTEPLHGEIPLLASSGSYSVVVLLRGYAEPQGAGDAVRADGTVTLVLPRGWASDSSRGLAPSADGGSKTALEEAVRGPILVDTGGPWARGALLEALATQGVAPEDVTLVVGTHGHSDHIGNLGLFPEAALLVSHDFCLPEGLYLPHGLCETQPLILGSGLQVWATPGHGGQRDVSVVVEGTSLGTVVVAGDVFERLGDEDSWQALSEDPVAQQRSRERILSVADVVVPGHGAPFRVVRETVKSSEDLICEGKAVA
Protocol: (§1) HEK Flp-In T-REx-293 cells (T-REx) expressing mouse or human MBLAC1 proteins were generated per manufacturer's (ThermoFisher, Waltham, Mass., USA) instructions. Briefly, mouse and human Mblac1 cDNAs were subcloned into pcDNA5/FRT/TO vector and then co-transfected with pOG44 plasmid (encoding Flp recombinase) by lipid based transfection into Flp-In T-REx-293 cells using TransIT-LT1 (Mirus, Madison, Wis.). Stable integrants were isolated following selection with 100 μg/ml hygromycin. Expression of MBLAC1 protein was induced by addition of 1 μg/mL tetracycline (TET) to the media. […]
(§2) To assess the binding of unlabeled Cef with MBLAC1 in cell and tissue lysates, BSI was utilized. […] RI changes are quantified by comparing fringe shifts between test and reference samples.
(§3) Lysates for BSI contained Cef at concentrations of 0 μM, 5 μM, and 50 μM and concentrations of either 300 μg/mL (mouse cell lysates) or 100 μg/mL (human cell lysates and mouse brain lysates) protein. […] To obtain BSI signals, the sample with 0 μM Cef was injected into the channel in a stop-flow manner using a vacuum and allowed to reach temperature and pressure equilibrium (˜10 sec) at which point the phase value (BSI signal) was measured for 20 sec. Specific BSI signal was determined by subtracting Cef only signal from Cef-lysate signals. […]

human MBLAC1 = molecular target: T2, human MBLAC1 (Homo sapiens, UniProt A4D2B0); test: Backscattering interferometry (BSI) binding to lysates of TET-induced T-REx cells expressing human MBLAC1; settings: 5 μM and 50 μM
T2 construct: mouse and human Mblac1 cDNAs were subcloned into pcDNA5/FRT/TO vector; expressed in transfected cells; cell lysate
T2 sequence (A4D2B0 1-266): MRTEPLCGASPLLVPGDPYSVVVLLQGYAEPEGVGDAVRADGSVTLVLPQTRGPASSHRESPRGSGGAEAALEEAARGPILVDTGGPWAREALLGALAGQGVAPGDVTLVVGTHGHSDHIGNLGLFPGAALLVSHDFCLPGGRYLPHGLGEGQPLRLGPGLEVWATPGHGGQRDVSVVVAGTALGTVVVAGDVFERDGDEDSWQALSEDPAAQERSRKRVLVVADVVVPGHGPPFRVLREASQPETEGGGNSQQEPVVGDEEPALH
Protocol: as §1, §2, §3

MBLAC1 [1] = test: MBLAC1 pulldown with Cef-conjugated CN-Br Sepharose beads, competition by free Cef; assay type: binding
MBLAC1 [2] = molecular target: T3, MBLAC1 (Mus musculus, UniProt Q8BWY4); test: BSI binding to mouse frontal cortex lysates, with and without MBLAC1 immunodepletion
T3 construct: from tissue; host or cells: mouse (C57BL/6J) frontal cortex, 100,000 x g supernatant
T3 sequence (Q8BWY4 1-260): T1 sequence (Q8BWY4 1-260)
Protocol: Wild type C57BL/6J mice (Jackson Labs, Bar Harbor, Me.) were rapidly decapitated and frontal cortex was dissected. Tissue was homogenized in ice cold 20 mM HEPES buffer (pH 7.4) using a Dounce homogenizer (Wheaton, Millville, N.J.), and then sonicated (F60 sonic dismembrator, Fisher Scientific, Waltham, Mass.) using 5, 1 sec pulses. Lysates were then centrifuged at 100,000×g for 30 min. Supernatants were collected, diluted with 2× lysis buffer (40 mM HEPES, 220 mM KCl, 20 mM NaCl, 4 mM MgCl, 10 mM KH2PO4, 500 μM ZnSO4) and protein concentration determined (BCA Protein Assay, ThermoFisher, Waltham, Mass.). […]
as §2, §3

[3] = system: MBLAC1 WT and MBLAC1 KO mice; test: Effect of repeated Cef on cocaine-induced locomotion, open field; assay type: in vivo, mouse; settings: Cef 200 mg/kg IP once daily 10 days, cocaine 10 mg/kg 24 h later
Protocol: Animals: All mice were used in accordance with protocols approved by the Florida Atlantic University Institutional Animal Care and Use Committee. Mice were group-housed on a 12 h/12 h light/dark cycle and given ad libitum access to food and water. Breeding was accomplished with mating of heterozygous males with heterozygous females. Male and female mice 11-13 weeks old at the start of the experiment were used in testing the effects of repeated ceftriaxone on response to cocaine in the open field assay. Data from males and females were combined.
Repeated Cef treatment/acute cocaine administration: MBLAC1 wild-type (WT, MBLAC1^+/+) and knockout mice (MBLAC1^−/−) were used in this experiment. Mice were injected IP once daily for 10 days with 200 mg/kg ceftriaxone (CEF) or saline. Twenty-four hours following the last CEF injection, mice were injected with 10 mg/kg cocaine or saline followed immediately by testing in open field activity chambers (Med Associates, Fairfax, Vt.) for 60 minutes. Locomotor activity was evaluated by photocells in the X, Y and Z dimensions. Horizontal beam breaks, vertical beam breaks, and repetitive movements were recorded and measures, including distance traveled, vertical rearing and stereotypic counts, were calculated. Data were analyzed in 5 min time bins within session, and for the first 30 min following cocaine injection. Data were analyzed by two-way ANOVA repeated measures, with time bin as the repeated measure, or by two-way ANOVA for 30 min cumulated data. At the end of behavior, mice were euthanized by CO2.
The methods were performed essentially as described in Tallarida et al. Neurosci Lett vol. 556, p. 155-159, 2013.

For `CC(=O)OCC1=C(C(=O)O)N2C(=O)[C@@H](NC(=O)CCC[C@@H](N)C(=O)O)[C@H]2SC1` [CephC, cephalosporin C], the BSI binding signal (mouse MBLAC1) was “non-significant reduction in BSI signal; also recorded: a significant CephC BSI signal (FIG. 3D) was not seen”.

`CO/N=C(\C(=O)N[C@@H]1C(=O)N2C(C(=O)O)=C(CSc3nc(=O)c(=O)[nH]n3C)CS[C@H]12)c1csc(N)n1` [Cef, ceftriaxone] was tested, and the BSI binding signal (mouse MBLAC1) was “concentration-dependent, heat-sensitive BSI binding signals; also recorded: significant, dose-dependent BSI signals; also recorded: Significant dose-dependent BSI signals”, the BSI binding signal (human MBLAC1) was “concentration-dependent, heat-sensitive BSI binding signals; also recorded: significant, dose-dependent BSI signals” and the “Mean reduction in MBLAC1 binding to immobilized Cef” value (MBLAC1 [1]; 50 μM free Cef preincubated with lysate, n=6) was 52.4±9.3%. The “MBLAC1 capture by Cef-conjugated beads” value (MBLAC1 [1]; lysates preincubated with Cef 50 μM) was “significantly diminished MBLAC1 capture”, the BSI binding signal (MBLAC1 [2]; mouse frontal cortex lysate immunodepleted of MBLAC1 with antibody #80) was “eliminated Cef binding activity; also recorded: the Cef binding signal was abolished” and the BSI binding signal (MBLAC1 [2]; mouse frontal cortex lysate, 5 μM and 50 μM) was “shows binding signal with Cef”. For the same molecule, the “Effect on cocaine-induced locomotion (ambulatory distance, first 30 min)” value (from here on “Effect on cocaine-induced locomotion”) ([3]; MBLAC1 KO mice) was “no ability to attenuate cocaine actions”, the “Effect on cocaine-induced locomotion” value ([3]; MBLAC1 KO mice, listed as CEF) was “had no effect on the response to cocaine” and the “Effect on cocaine-induced locomotion” value ([3]; MBLAC1 WT mice) was “the locomotor activating effects of cocaine were lost”. The “Effect on cocaine-induced locomotion” value ([3]; MBLAC1 WT mice, listed as CEF) was “completely blocked the effects of cocaine”.

From patent publication US11693005B2, “Methods for identifying treatments that reduce the actions of substances of abuse and addiction” (Florida Atlantic University Board of Trustees, priority 2018, dated 2023)
